Test results as given in patent US6670382B2, “Hydroxyformamidine derivatives and medicines containing the same” (Taisho Pharmaceutical Co., Ltd., priority 2000, dated 2003).

Legend:
[1] = tested on: 20-HETE synthase derived from rat kidney microsome; assay: Inhibitory effect of 20-HETE synthase derived from rat kidney microsome; type: biochemical; settings: SHR rat kidney microsome; for IC50: concentration at which 20-HETE production was inhibited to 50%; for Inhibition (1 µM): inhibition rate of 20-HETE production, subject compound 1 μM, 3H-arachidonic acid, NADPH, 1.5 hours at 37° C., pH 7.4
Protocol: [Inhibitory Effect of 20-HETE Synthase Derived from Rat Kidney Microsome]
Regarding the compounds listed in the Table described above, their inhibitory activities on production of 20-HETE were examined.
This examination was carried out based on the method described in J. Pharmacol. Exp. Ther., Vol. 268, p. 474 (1994).
The subject compound in an amount of 1 μM was added to a 50 mM of 3-morpholinopropanesulfonic acid buffer (MOPS) (pH 7.4), containing 5 mM of magnesium chloride, and 1 mM of ethylenediaminetetraacetic acid (EDTA) disodium salt.
Subsequently, the rat kidney microsome fraction prepared from the kidney of a spontaneously hypertensive rat (male, 6 weeks of age) as an enzyme, [5,6,8,9,11,12,14,15] tritium-arachidonic acid (supplied by Amasham) as a substrate, and NADPH (supplied by Sigma) as a coenzyme were added, and were reacted for 1.5 hours at 37° C.
After the reaction was quenched by adding formic acid (supplied by Wako Pure Chemical Industries Ltd.) to the reaction solution, acetonitrile (final concentration of 50%) was added thereto, and the mixture was allowed to stand for 1.5 hours at room temperature. The amount of 20-HETE production was measured by using a high performance liquid chromatography having a detector for radioactive substances (supplied by Gilson), equipped with an ODS column (Biocyl C18, supplied by Bio-rad).
Setting an amount of 20-HETE production to 100% when no subject compound was added, the inhibition rate (%) was calculated from the amount of 20-HETE production when a subject compound was added.
In addition, setting an amount of 20-HETE production to 100% when no subject compound was added, the concentration of the subject compound at which the production of the 20-HETE was inhibited to 50% when the subject compound is added (IC50 value) was also calculated.

| Structure (SMILES) | melting point [°C] | IC50 [1] [nM] | Inhibition (1 µM) [1] [%] |
| --- | --- | --- | --- |
| O/N=C/Nc1ccc(OCc2ccccc2)nc1 [Comp. 9] | 163.5 to 164 | 9.1 | 82.9 |
| CC/C=C/COc1ccc(N/C=N/O)cn1 [Comp. 47] | 82 to 84 | 45.4 | 99.2 |
| O/N=C/Nc1ccc(SC2CCCC2)nc1 [Comp. 109] | 153.5 to 154.5 | 11.5 | 82.1 |
| N#Cc1cccc(COc2ccc(N/C=N/O)cn2)c1 [Comp. 81] | 166.5 to 167 | 1.7 | 104.4 |
| OCCSc1ccc(N/C=N/O)cn1 [Comp. 107] | 115 to 115.5 | 294 | 83.1 |
| O/N=C/Nc1ccc(OCCc2ccsc2)nc1 [Comp. 99] | 138 to 140 | 1.9 | 95.4 |
| O/N=C/Nc1ccc(SCc2ccco2)nc1 [Comp. 110] | 140.5 to 141.5 | 12.1 | 85.7 |
| COc1ccccc1COc1ccc(N/C=N/O)cn1 [Comp. 72] | 146.5 to 147.5 | 59 | 92.9 |
| OCCCSc1ccc(N/C=N/O)cn1 [Comp. 120] | 105 to 105.5 | 117 | 102.0 |
| CN1CCCC(COc2ccc(N/C=N/O)cn2)C1 (centres unmarked) [Comp. 124] | 122 to 124 | 142 | 92.6 |
| CC(C)Sc1ccc(N/C=N/O)cn1 [Comp. 102] | 141 to 142 | 18.2 | 74.5 |
| CC#CCOc1ccc(N/C=N/O)cn1 [Comp. 65, N-[2-(2-butyn-1-oxy)pyridin-5-yl]-N′-hydroxyformamidine] | 155.5 to 157 | 68.2 | 86.9 |
| O/N=C/Nc1ccc(OCc2ccc(F)cc2)nc1 [Comp. 80] | 166.5 to 167.5 | 3.9 | 102.9 |
| C/C=C/COc1ccc(N/C=N/O)cn1 [Comp. 45] | 143 to 144.5 | 10.7 | 80.3 |
| CCN(CC)CCSc1ccc(N/C=N/O)cn1 [Comp. 127] | 124.5 to 125.5 | 330 | – |
| CCC(C)Sc1ccc(N/C=N/O)cn1 (centres unmarked) [Comp. 111] | 125.5 to 127.5 | 33.8 | 76.8 |
| O/N=C/Nc1ccc(OCC2CCCCO2)nc1 (centres unmarked) [Comp. 97] | 149.5 to 152.5 | 58.1 | 85.5 |
| O/N=C/Nc1ccc(OCc2cc(F)ccc2F)nc1 [Comp. 73] | 158.5 to 159.5 | 6.4 | 105.0 |
| O/N=C/Nc1ccc(SCc2ccccc2)nc1 [Comp. 104, N-[2-(benzylthio)pyridin-5-yl]-N′-hydroxyformamidine] | 133 to 135 | – | 103.6 |
| CC(C)(C)Sc1ccc(N/C=N/O)cn1 [Comp. 117] | 174.5 to 175 | 435 | 69.3 |
| O/N=C/Nc1ccc(OCCc2cccs2)nc1 [Comp. 98] | 137.5 to 138.5 | 4.3 | 100.7 |
| O/N=C/Nc1ccc(OCCc2ccccn2)nc1 [Comp. 5] | 128.5 to 130 | 14.9 | – |
| O/N=C/Nc1ccc(OCCOc2ccccc2)nc1 [Comp. 94] | 153 to 154 | 3.2 | 100.3 |
| COc1cccc(COc2ccc(N/C=N/O)cn2)c1 [Comp. 78] | 126 to 127 | 4.2 | 100.2 |
| CC(C)Oc1ccc(N/C=N/O)cn1 [Comp. 8] | 116.5 to 117 | 603 | 71.0 |
| COc1cccc(COc2ccc(N/C=N/O)cn2)c1OC [Comp. 82] | 128.5 to 129 | 60.1 | 104.5 |
| COc1ccccc1CCOc1ccc(N/C=N/O)cn1 [Comp. 69] | 159.5 to 161 | 6.5 | 102.8 |
| COc1ccc(COc2ccc(N/C=N/O)cn2)cc1 [Comp. 77] | 164.5 to 165.5 | 3.3 | 100.3 |
| CN1CCC(CCOc2ccc(N/C=N/O)cn2)CC1 [Comp. 128] | 131 to 133 | 312 | – |

Second part, led by results:

| melting point [°C] | IC50 [1] [nM] | Structure (SMILES) | Inhibition (1 µM) [1] [%] |
| --- | --- | --- | --- |
| 143.5 to 144.5 | 400 | C#CCOc1ccc(N/C=N/O)cn1 [Comp. 121] | 99.8 |
| 123 to 125 | 6.8 | CC(C)CCOc1ccc(N/C=N/O)cn1 [Comp. 53] | 108.5 |
| 109 to 111 | 6.6 | CSCCCOc1ccc(N/C=N/O)cn1 [Comp. 93] | 97.4 |
| 99 to 100 | 4.4 | CCOCCCOc1ccc(N/C=N/O)cn1 [Comp. 59] | 109.6 |
| 108 to 112 | 566 | CN(C)CCCOc1ccc(N/C=N/O)cn1 [Comp. 132] | – |
| 119 to 120 | – | C=CCCOc1ccc(N/C=N/O)cn1 [Comp. 55] | 87.3 |
| 120 to 122 | 5.9 | C=CCCCOc1ccc(N/C=N/O)cn1 [Comp. 54] | 111.7 |
| 127 to 128 | 167 | CCCCOc1ccc(N/C=N/O)cn1 [Comp. 10] | 106.3 |
| 110 to 111.5 | 53.6 | CN(C)CCCCCCOc1ccc(N/C=N/O)cn1 [Comp. 133] | – |
| 124.5 to 125.5 | 14.7 | C#CCCCOc1ccc(N/C=N/O)cn1 [Comp. 56] | 102.1 |
| 151 to 152 | 9.8 | CC#CCCOc1ccc(N/C=N/O)cn1 [Comp. 46] | 89.9 |
| 74 to 76.5 | 0.6 | CN(C)CC(C)(C)COc1ccc(N/C=N/O)cn1 [Comp. 123, N-[2-(3-dimethylamino-2,2-dimethylpropyl-1-oxy)pyridin-5-yl]-N′-hydroxyformamidine] | 97.5 |
